How the values were obtained:
[1] = biological target: T1, Human melanin-concentrating hormone (MCH1) (Homo sapiens, UniProt Q99705); assay: Radioligand binding, human melanin-concentrating hormone MCH1 membranes, FlashPlate, [125I]-S36057; details: compound at 10 μM; for A6: inhibition of radioligand binding, human melanin-concentrating hormone (MCH1): [125I]-S36057; for A6 radioligand binding inhibition: human MCH1 membranes
T1 construct: purchased Perkin Elmer Biosignal
How it was run: (§1)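 Cloned human receptor membranes were coated onto FlashPlate wells and incubated with radioligand and compound (added from a 0.5 mM DMSO daughter plate) for 1 hour at room temperature in the dark. Scintillation counting gave percent inhibition, with DMSO defining total and reference ligand defining non-specific binding.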

[2] = biological target: T2, Human neurokinin (NK1) (Homo sapiens, UniProt P25103); assay: Radioligand binding, human neurokinin NK1 membranes, filtration, [125I]-Substance P; details: compound at 10 μM; for A8 radioligand binding inhibition: human neurokinin NK1 membranes
T2 construct: purchased Perkin Elmer Biosignal
How it was run: (§2)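 Filtration binding on cloned human receptor membranes (1 Unit/well), [125I]-Substance P for NK1 and [3H]-Diprenorphine for KOP, 1 h at room temperature. Filters PEI-presoaked, washed with cold 50 mM Tris-HCl pH 7.4, counted by scintillation; percent inhibition calculated, reference ligand defining non-specific binding.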

[3] = biological target: T3, Human Melanocortin (MC4) (Homo sapiens, UniProt P32245); assay: Radioligand binding, human melanocortin MC4 membranes, FlashPlate, [125I]-NDP-αMSH; details: compound at 10 μM; for A4 radioligand binding inhibition: human melanocortin MC4 membranes
T3 construct: purchased Perkin Elmer Biosignal
How it was run: as §1

[4] = biological target: T4, Human Melanocortin (MC3) (Homo sapiens, UniProt P41968); assay: Radioligand binding, human melanocortin MC3 membranes, FlashPlate, [125I]-NDP-αMSH; details: compound at 10 μM; for A3 radioligand binding inhibition: human melanocortin MC3 membranes
T4 construct: purchased Perkin Elmer Biosignal
How it was run: as §1

[5] = biological target: T5, Human neuropeptide Y (NPY-Y1) (Homo sapiens, UniProt P25929); assay: Radioligand binding, human neuropeptide Y NPY-Y1 membranes, FlashPlate, [125I]-PYY; details: compound at 10 μM; for A9 radioligand binding inhibition: human NPY-Y1 membranes
T5 construct: purchased Perkin Elmer Biosignal
T5 sequence (P25929 1-384): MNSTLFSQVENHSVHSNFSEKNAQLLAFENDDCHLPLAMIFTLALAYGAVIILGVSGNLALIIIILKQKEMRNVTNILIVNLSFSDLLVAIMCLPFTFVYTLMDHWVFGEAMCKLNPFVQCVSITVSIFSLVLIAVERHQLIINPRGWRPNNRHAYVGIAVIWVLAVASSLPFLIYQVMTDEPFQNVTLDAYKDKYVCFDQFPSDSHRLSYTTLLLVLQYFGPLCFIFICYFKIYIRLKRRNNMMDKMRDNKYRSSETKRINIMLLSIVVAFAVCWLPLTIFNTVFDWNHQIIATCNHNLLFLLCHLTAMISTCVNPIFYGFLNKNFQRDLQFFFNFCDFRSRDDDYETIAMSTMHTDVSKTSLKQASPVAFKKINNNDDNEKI
How it was run: as §1

[6] = biological target: T6, Mouse urotensin (mUR2) (Mus musculus, UniProt Q8VIH9); assay: Radioligand binding, mouse urotensin mUR2 membranes, FlashPlate, [125I]-Urotensin II; details: compound at 10 μM; for A11 radioligand binding inhibition: mouse urotensin mUR2 membranes
T6 construct: purchased Perkin Elmer Biosignal
T6 sequence (Q8VIH9 1-385): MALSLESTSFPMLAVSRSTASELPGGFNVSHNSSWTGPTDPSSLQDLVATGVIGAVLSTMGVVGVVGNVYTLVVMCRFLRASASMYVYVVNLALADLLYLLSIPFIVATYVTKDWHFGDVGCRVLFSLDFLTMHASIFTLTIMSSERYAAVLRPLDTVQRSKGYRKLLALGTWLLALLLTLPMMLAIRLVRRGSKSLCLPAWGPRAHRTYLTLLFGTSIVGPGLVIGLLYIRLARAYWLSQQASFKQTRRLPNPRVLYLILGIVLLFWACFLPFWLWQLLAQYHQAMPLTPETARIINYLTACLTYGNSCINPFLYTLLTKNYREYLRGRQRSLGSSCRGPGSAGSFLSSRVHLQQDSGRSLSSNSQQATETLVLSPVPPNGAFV
How it was run: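 Cloned mouse urotensin (mUR2) receptor membranes from Perkin Elmer Biosignal were immobilized in FlashPlate microplates using a proprietary coating. Each well got 19.5 μl buffer, then 0.5 μl of DMSO, reference ligand, or compound. Adding 5 μl of [125I]-Urotensin II, diluted to 5× final concentration in binding buffer, started binding. Plates were sealed with TopSeal-A and incubated 1 hour at room temperature in the dark. Wells were counted for 30 seconds each on a TopCount after a 60-second delay, and percentage inhibition was calculated.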

[7] = biological target: T7, Human melanocortin (MC5) (Homo sapiens, UniProt P33032); assay: Radioligand binding, human melanocortin MC5 membranes, FlashPlate, [125I]-NDP-αMSH; details: compound at 10 μM; for A5 radioligand binding inhibition: human melanocortin MC5 membranes
T7 construct: purchased Perkin Elmer Biosignal
How it was run: as §1

[8] = biological target: T8, Human μ-opioid (MOP) (Homo sapiens, UniProt P35372); assay: Radioligand binding, human μ-opioid (MOP) membranes, FlashPlate, [3H]-Naloxone; details: compound at 10 μM; for A7 radioligand binding inhibition: human μ-opioid (MOP) membranes
T8 construct: purchased Perkin Elmer Biosignal
How it was run: as §1

[9] = biological target: T9, Human κ-Opioid (KOP) (Homo sapiens, UniProt P41145); assay: Radioligand binding, human κ-opioid (KOP) membranes, filtration, [3H]-Diprenorphine; details: compound at 10 μM; for A2 radioligand binding inhibition: human κ-opioid (KOP) membranes
T9 construct: purchased Perkin Elmer Biosignal
How it was run: as §2

[10] = biological target: T10, Human δ-opioid (DOP) (Homo sapiens, UniProt P41143); assay: Radioligand binding, human δ-opioid (DOP) membranes, FlashPlate, [3H]-Bremazocine; details: compound at 10 μM; for A1 radioligand binding inhibition: human δ-opioid (DOP) membranes
T10 construct: purchased Perkin Elmer Biosignal
How it was run: as §1

[11] = biological target: T11, Human opioid (ORL1) (Homo sapiens, UniProt P41146); assay: Radioligand binding, human opioid ORL1 membranes, FlashPlate, [125I]-Nociceptin; details: compound at 10 μM; for A10 radioligand binding inhibition: human ORL1 membranes
T11 construct: purchased Perkin Elmer Biosignal
How it was run: as §1

T10 sequence (P41143 whole entry): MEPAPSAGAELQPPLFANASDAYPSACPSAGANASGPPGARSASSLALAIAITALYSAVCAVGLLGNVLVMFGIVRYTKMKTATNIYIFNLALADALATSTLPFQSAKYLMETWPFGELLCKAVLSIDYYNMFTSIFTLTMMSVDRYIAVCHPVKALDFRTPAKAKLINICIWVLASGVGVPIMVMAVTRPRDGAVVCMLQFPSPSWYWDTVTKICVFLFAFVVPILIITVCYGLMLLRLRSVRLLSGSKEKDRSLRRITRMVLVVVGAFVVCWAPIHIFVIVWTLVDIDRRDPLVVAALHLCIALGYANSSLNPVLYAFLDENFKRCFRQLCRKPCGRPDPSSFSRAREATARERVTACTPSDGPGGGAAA
T3 sequence (P32245 whole entry): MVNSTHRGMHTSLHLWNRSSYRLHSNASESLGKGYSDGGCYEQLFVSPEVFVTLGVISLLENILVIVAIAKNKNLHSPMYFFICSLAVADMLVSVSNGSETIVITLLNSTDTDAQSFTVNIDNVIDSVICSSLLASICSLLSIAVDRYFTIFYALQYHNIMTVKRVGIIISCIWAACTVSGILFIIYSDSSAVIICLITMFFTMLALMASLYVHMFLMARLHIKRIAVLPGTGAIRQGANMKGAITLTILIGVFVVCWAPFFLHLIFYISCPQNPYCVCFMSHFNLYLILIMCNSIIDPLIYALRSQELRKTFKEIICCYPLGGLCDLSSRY
T2 sequence (P25103 whole entry): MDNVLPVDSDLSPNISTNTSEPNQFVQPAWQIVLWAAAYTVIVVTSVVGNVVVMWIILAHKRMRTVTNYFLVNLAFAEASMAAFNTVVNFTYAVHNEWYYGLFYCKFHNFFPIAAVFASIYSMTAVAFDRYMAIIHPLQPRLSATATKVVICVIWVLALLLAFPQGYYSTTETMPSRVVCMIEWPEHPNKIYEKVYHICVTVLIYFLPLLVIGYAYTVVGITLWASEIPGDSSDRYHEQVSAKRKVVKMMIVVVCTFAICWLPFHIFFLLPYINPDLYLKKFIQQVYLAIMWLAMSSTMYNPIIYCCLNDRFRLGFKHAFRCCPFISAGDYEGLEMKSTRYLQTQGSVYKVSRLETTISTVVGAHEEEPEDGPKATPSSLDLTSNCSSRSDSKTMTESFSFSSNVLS
T4 sequence (P41968 whole entry): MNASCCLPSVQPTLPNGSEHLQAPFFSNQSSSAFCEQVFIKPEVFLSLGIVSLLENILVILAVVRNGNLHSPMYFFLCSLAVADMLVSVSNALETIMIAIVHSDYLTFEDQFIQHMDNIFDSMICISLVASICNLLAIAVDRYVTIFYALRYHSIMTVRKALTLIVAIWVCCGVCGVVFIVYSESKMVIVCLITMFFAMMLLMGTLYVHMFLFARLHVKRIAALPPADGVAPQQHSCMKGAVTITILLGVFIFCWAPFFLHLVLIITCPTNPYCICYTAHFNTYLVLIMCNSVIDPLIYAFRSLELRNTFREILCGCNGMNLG
T11 sequence (P41146 whole entry): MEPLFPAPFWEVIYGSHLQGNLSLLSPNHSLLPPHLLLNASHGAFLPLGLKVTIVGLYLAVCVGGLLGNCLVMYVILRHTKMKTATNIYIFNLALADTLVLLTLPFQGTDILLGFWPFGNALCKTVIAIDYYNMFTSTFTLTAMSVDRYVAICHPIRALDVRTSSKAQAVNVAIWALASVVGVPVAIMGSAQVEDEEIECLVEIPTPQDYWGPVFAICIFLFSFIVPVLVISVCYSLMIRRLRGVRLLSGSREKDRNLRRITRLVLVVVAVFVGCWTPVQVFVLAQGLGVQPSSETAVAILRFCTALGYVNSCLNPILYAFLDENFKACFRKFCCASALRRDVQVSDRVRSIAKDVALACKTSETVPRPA
T1 sequence (Q99705 whole entry): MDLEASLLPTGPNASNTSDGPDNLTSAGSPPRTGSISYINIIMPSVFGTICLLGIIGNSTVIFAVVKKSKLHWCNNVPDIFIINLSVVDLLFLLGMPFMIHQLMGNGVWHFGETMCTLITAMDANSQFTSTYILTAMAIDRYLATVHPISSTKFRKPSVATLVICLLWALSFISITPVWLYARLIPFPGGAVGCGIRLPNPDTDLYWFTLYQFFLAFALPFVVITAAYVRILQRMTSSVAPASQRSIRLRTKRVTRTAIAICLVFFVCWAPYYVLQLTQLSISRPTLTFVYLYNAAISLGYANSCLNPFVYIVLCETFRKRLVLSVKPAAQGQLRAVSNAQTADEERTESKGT
T8 sequence (P35372 whole entry): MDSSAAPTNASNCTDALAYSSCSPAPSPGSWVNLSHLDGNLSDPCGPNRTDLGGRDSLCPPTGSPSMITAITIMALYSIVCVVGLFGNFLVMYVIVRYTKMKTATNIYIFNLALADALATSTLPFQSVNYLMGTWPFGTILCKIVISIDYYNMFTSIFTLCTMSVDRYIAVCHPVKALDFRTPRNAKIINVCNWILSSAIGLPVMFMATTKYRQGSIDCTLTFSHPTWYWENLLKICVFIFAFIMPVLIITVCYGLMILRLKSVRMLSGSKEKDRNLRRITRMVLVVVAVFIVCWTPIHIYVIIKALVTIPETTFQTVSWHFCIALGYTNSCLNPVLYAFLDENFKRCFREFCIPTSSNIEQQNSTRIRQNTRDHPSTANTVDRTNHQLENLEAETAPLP
T9 sequence (P41145 whole entry): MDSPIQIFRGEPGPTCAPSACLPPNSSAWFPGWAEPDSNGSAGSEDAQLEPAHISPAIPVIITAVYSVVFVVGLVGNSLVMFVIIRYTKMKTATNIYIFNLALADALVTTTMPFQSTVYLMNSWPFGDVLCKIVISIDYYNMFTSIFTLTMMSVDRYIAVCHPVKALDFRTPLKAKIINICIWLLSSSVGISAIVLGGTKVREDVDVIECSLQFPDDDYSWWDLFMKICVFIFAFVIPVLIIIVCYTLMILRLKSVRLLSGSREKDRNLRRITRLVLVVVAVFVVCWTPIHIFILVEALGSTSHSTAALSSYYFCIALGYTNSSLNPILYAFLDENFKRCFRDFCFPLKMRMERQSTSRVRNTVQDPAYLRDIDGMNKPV
T7 sequence (P33032 whole entry): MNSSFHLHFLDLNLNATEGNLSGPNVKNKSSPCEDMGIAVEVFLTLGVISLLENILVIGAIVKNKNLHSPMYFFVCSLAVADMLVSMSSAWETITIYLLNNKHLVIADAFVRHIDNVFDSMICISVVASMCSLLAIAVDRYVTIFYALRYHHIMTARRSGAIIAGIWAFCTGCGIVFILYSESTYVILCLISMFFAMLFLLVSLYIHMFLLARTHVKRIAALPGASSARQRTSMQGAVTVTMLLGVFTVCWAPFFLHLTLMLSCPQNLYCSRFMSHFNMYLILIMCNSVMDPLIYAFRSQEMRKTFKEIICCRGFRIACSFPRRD

SMILES | A8: inhibition of radioligand binding, human neurokinin (NK1) ([2]; [125I]-Substance P) | A3: inhibition of radioligand binding, human melanocortin (MC3) ([4]; [125I]-NDP-αMSH) | A9: inhibition of radioligand binding, human neuropeptide Y (NPY-Y1) ([5]; [125I]-PYY) | A11: inhibition of radioligand binding, mouse urotensin (mUR2) ([6]; [125I]-Urotensin II) | A7: inhibition of radioligand binding, human μ-opioid (MOP) ([8]; [3H]-Naloxone) | A2: inhibition of radioligand binding, human κ-opioid (KOP) ([9]; [3H]-Diprenorphine) | A1: inhibition of radioligand binding, human δ-opioid (DOP) ([10]; [3H]-Bremazocine) | A10: inhibition of radioligand binding, human opioid (ORL1) ([11]; [125I]-Nociceptin) | A6 radioligand binding inhibition [1] | A8 radioligand binding inhibition [2] | A4 radioligand binding inhibition [3] | A3 radioligand binding inhibition [4] | A9 radioligand binding inhibition [5] | A11 radioligand binding inhibition [6] | A5 radioligand binding inhibition [7] | A7 radioligand binding inhibition [8] | A2 radioligand binding inhibition [9] | A1 radioligand binding inhibition [10] | A10 radioligand binding inhibition [11] | also measured
NCCCC(=O)NC1C(OCc2ccc(Cl)cc2)OC(COCc2ccccc2)C(O)C1OCc1ccc(Cl)cc1 (single isomer, unassigned) [compound 492] | + (“+” indicates greater than 50% inhibition at 10 μM) | − (“−” indicates less than 50% inhibition at 10 μM) | − (“−” indicates less than 50% inhibition at 10 μM) | − (“−” indicates less than 50% inhibition at 10 μM) | − (“−” indicates less than 50% inhibition at 10 μM) | − (“−” indicates less than 50% inhibition at 10 μM) | − (“−” indicates less than 50% inhibition at 10 μM) | + (“+” indicates greater than 50% inhibition at 10 μM) | – | – | – | – | – | – | – | – | – | – | – | A6: inhibition of radioligand binding, human melanin-concentrating hormone (MCH1) ([1]; 10 µM): + (“+” indicates greater than 50% inhibition at 10 μM); A4: inhibition of radioligand binding, human melanocortin (MC4) ([3]; [125I]-NDP-αMSH, 10 µM): + (“+” indicates greater than 50% inhibition at 10 μM); A5: inhibition of radioligand binding, human melanocortin (MC5) ([7]; [125I]-NDP-αMSH, 10 µM): + (“+” indicates greater than 50% inhibition at 10 μM)
CO[C@H]1[C@H](O)[C@@H](COCc2ccc(Cl)cc2)OC(OCc2ccc3ccccc3c2)[C@@H]1NC(=O)CCNC(=N)N (stereo partly shown) [compound 79] | – | – | – | – | – | – | – | – | − (“−” indicates less than 50% inhibition at 10 μM) | + (“+” indicates greater than 50% inhibition at 10 μM) | + (“+” indicates greater than 50% inhibition at 10 μM) | − (“−” indicates less than 50% inhibition at 10 μM) | − (“−” indicates less than 50% inhibition at 10 μM) | − (“−” indicates less than 50% inhibition at 10 μM) | + (“+” indicates greater than 50% inhibition at 10 μM) | + (“+” indicates greater than 50% inhibition at 10 μM) | − (“−” indicates less than 50% inhibition at 10 μM) | − (“−” indicates less than 50% inhibition at 10 μM) | − (“−” indicates less than 50% inhibition at 10 μM) | –
COC[C@H]1OC(OCCc2ccccc2)[C@H](NC(=O)CCCN)[C@@H](OCc2ccc(-c3ccccc3)cc2)[C@@H]1O (stereo partly shown) [compound 42] | – | – | – | – | – | – | – | – | − (“−” indicates less than 50% inhibition at 10 μM) | − (“−” indicates less than 50% inhibition at 10 μM) | − (“−” indicates less than 50% inhibition at 10 μM) | − (“−” indicates less than 50% inhibition at 10 μM) | − (“−” indicates less than 50% inhibition at 10 μM) | − (“−” indicates less than 50% inhibition at 10 μM) | + (“+” indicates greater than 50% inhibition at 10 μM) | − (“−” indicates less than 50% inhibition at 10 μM) | − (“−” indicates less than 50% inhibition at 10 μM) | − (“−” indicates less than 50% inhibition at 10 μM) | − (“−” indicates less than 50% inhibition at 10 μM) | –
COCC1OC(OCc2ccc(Cl)cc2)C(NC(=O)CCNC(=N)N)C(OCc2ccc(Cl)cc2)C1O (stereo not shown) [compound 202] | – | – | – | – | – | – | – | – | – | – | – | – | – | – | – | – | – | – | – | A6: inhibition of radioligand binding ([1]; [125I]-S36057, FlashPlate): + (“+” indicates greater than 50% inhibition at 10 μM); A8: inhibition of radioligand binding ([2]; [125I]-Substance P, filtration): + (“+” indicates greater than 50% inhibition at 10 μM); A4: inhibition of radioligand binding ([3]; [125I]-NDP-αMSH, FlashPlate): + (“+” indicates greater than 50% inhibition at 10 μM); A3: inhibition of radioligand binding ([4]; [125I]-NDP-αMSH, FlashPlate): + (“+” indicates greater than 50% inhibition at 10 μM); A9: inhibition of radioligand binding ([5]; [125I]-PYY, FlashPlate): − (“−” indicates less than 50% inhibition at 10 μM); A11: inhibition of radioligand binding ([6]; [125I]-Urotensin II, FlashPlate): − (“−” indicates less than 50% inhibition at 10 μM); A5: inhibition of radioligand binding ([7]; [125I]-NDP-αMSH, FlashPlate): + (“+” indicates greater than 50% inhibition at 10 μM); A7: inhibition of radioligand binding ([8]; [3H]-Naloxone, FlashPlate): − (“−” indicates less than 50% inhibition at 10 μM); A2: inhibition of radioligand binding ([9]; [3H]-Diprenorphine, filtration): − (“−” indicates less than 50% inhibition at 10 μM); A1: inhibition of radioligand binding ([10]; [3H]-Bremazocine, FlashPlate): − (“−” indicates less than 50% inhibition at 10 μM); A10: inhibition of radioligand binding ([11]; [125I]-Nociceptin, FlashPlate): − (“−” indicates less than 50% inhibition at 10 μM)
COC[C@H]1OC(OCc2ccc(Cl)cc2)[C@H](NC(=O)CCCN)[C@@H](OCc2ccc3ccccc3c2)[C@@H]1O (single isomer, unassigned) [compound 344] | + (“+” indicates greater than 50% inhibition at 10 μM) | − (“−” indicates less than 50% inhibition at 10 μM) | − (“−” indicates less than 50% inhibition at 10 μM) | − (“−” indicates less than 50% inhibition at 10 μM) | − (“−” indicates less than 50% inhibition at 10 μM) | − (“−” indicates less than 50% inhibition at 10 μM) | − (“−” indicates less than 50% inhibition at 10 μM) | − (“−” indicates less than 50% inhibition at 10 μM) | – | – | – | – | – | – | – | – | – | – | – | A6: inhibition of radioligand binding, human melanin-concentrating hormone (MCH1) [1]: − (“−” indicates less than 50% inhibition at 10 μM); A4: inhibition of radioligand binding, human melanocortin (MC4) ([3]; [125I]-NDP-αMSH): − (“−” indicates less than 50% inhibition at 10 μM); A5: inhibition of radioligand binding, human melanocortin (MC5) ([7]; [125I]-NDP-αMSH): − (“−” indicates less than 50% inhibition at 10 μM)
